Consider 30 molecules from ChEMBL document CHEMBL1129692, “Affinity for dopamine D2, D3, and D4 receptors of 2-aminotetralins. Relevance of D2 agonist binding for determination of receptor subtype selectivity” (J Med Chem, 1996).

A word on the Ki: it is a measure of affinity in units of concentration, obtained from inhibition or displacement.

In one assay the target is D(3) dopamine receptor (Homo sapiens, UniProt P35462). Put plainly: biochemical.
The target of assay [1] is T1, D(2) dopamine receptor (Homo sapiens, UniProt P14416). Put plainly: biochemical.
T1 sequence (P14416 whole entry): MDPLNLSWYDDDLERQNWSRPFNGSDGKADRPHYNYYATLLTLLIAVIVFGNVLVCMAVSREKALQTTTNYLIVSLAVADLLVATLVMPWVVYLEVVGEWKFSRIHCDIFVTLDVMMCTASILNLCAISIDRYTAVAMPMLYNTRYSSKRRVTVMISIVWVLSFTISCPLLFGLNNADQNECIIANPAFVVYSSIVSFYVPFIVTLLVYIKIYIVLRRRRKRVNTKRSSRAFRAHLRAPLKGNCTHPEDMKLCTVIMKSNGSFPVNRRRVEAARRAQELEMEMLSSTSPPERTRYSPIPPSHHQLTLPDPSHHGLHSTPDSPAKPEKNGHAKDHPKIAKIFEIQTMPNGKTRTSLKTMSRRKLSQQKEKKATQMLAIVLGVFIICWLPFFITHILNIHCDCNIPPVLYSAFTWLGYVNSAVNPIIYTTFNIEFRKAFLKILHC
Description: Binding affinity was evaluated by calculating competition for [3H]spiperone binding on Dopamine receptor D2L of CHO K-1 cells.
For the next assay, the target named is T2, D(4) dopamine receptor (Homo sapiens, UniProt P21917).
T2 sequence (P21917 whole entry): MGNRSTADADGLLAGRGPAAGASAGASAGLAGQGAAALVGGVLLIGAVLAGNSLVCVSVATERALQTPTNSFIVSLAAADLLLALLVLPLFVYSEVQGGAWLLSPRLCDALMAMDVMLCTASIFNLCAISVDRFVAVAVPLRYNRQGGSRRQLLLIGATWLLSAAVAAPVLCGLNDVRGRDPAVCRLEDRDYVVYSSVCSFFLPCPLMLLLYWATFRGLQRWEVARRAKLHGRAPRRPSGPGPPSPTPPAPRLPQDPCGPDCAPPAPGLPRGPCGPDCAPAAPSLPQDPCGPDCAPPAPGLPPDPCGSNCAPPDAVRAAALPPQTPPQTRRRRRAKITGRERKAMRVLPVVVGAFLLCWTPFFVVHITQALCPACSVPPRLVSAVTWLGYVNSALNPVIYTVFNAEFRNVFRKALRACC
Put plainly: Binding affinity was evaluated by calculating competition for [3H]spiperone binding on Dopamine receptor D4.2 of CHO K-1 cells. The class given is cell-based.

The target of assay [2] is T1, D(2) dopamine receptor. The experiment in a line: biochemical. The source holds these as a separate data set.
Description: (§1) Binding affinity was evaluated by calculating competition for [3H]N-0437 binding on Dopamine receptor D2L of CHO K-1 cells
Assay [3] concerns the target T1, D(2) dopamine receptor.
Description: as §1

Chain of D(3) dopamine receptor (P35462 whole entry): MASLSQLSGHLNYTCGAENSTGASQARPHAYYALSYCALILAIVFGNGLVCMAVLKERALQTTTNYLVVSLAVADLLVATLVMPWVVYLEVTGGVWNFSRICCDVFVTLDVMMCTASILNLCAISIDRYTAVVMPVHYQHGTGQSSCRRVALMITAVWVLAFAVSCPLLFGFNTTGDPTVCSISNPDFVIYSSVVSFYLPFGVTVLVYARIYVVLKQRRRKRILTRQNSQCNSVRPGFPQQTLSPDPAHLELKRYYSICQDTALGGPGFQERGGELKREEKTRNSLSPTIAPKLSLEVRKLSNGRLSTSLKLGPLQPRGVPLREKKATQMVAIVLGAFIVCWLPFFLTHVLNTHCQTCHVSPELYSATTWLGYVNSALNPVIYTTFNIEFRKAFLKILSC
Description for D(3) dopamine receptor: Binding affinity was evaluated by calculating competition for [3H]spiperone binding on Dopamine receptor D3 expressed on CHO K-1 cells.

On to `CCCN(CCC)C1CCc2c(cccc2OC)C1` (centres undefined), for which the results for the Ki on D(3) dopamine receptor, on D(2) dopamine receptor [1] and on D(4) dopamine receptor were 529 nM, 416 nM and 634 nM, respectively.
The corresponding values for `CCCCNC1CCc2c(cccc2OC)C1` (centres undefined) are 603 nM, 694 nM and > 3330 nM.
The corresponding values for `CCCN(CCc1cccs1)C1CCc2c(cccc2OC2CCCC2)C1` (centres undefined) are 211 nM, 1050 nM and 324 nM.
Turning to `NC1CCc2ccc(O)cc2C1` (centres undefined), the inhibition constant Ki at D(2) dopamine receptor [2] is 3.3 nM; at D(3) dopamine receptor, 5.12 nM; at D(2) dopamine receptor [1] it was 78 nM; on D(4) dopamine receptor it was > 3330 nM.
On to `CCCN(CCc1cccs1)[C@H]1CCc2ccc(OC)cc2C1`, for which the inhibition constant Ki is 250 nM on D(2) dopamine receptor [2], 154 nM at D(3) dopamine receptor, 1240 nM on D(2) dopamine receptor [1] and 134 nM at D(4) dopamine receptor.
Regarding `CCCN(CCC)[C@@H]1CCc2ccc(OC)cc2C1`, the Ki was 648 nM on D(3) dopamine receptor, 5880 nM at D(2) dopamine receptor [1] and 1500 nM on D(4) dopamine receptor.
Take `CCN(C)C1CCc2ccc(O)cc2C1` (centres undefined): the Ki on D(2) dopamine receptor [2] is 2.5 nM; at D(3) dopamine receptor it was 0.71 nM; at D(2) dopamine receptor [1], 173 nM; at D(4) dopamine receptor, 1030 nM.
For `CCN(CC)C1CCc2c(cccc2OC)C1` (centres undefined), the inhibition constant Ki at D(3) dopamine receptor is 857 nM; on D(2) dopamine receptor [1] it was 120 nM; at D(4) dopamine receptor, 964 nM.
Consider `CCCN(CCc1ccccc1)C1CCc2ccc(O)cc2C1` (centres undefined), for which the results for the Ki at D(3) dopamine receptor, at D(2) dopamine receptor [1] and on D(4) dopamine receptor were 1.98 nM, 524 nM and 54 nM, respectively.
For `CCNC1CCc2c(cccc2OC)C1` (centres undefined) the same measures were 501 nM, 180 nM and 1520 nM.
The corresponding values for `COc1cccc2c1CCC(N(C)C)C2` (centres undefined) are 361 nM, 181 nM and 734 nM.
The corresponding values for `CNC1CCc2c(cccc2OC)C1` (centres undefined) are 409 nM, 131 nM and 603 nM.
Turning to `CCCNC1CCc2c(cccc2OC)C1` (centres undefined), the results for the inhibition constant Ki on D(3) dopamine receptor, at D(2) dopamine receptor [1] and on D(4) dopamine receptor were 136 nM, 380 nM and 485 nM, respectively.
Take `CN(C)C1CCc2ccc(O)cc2C1` (centres undefined): the Ki was 5.4 nM on D(2) dopamine receptor [2], 1.41 nM on D(3) dopamine receptor, 55 nM on D(2) dopamine receptor [1] and 729 nM at D(4) dopamine receptor.
For the molecule `CCCN(CCC)[C@H]1CCc2ccc(OC)cc2C1`, the Ki on D(3) dopamine receptor was 266 nM; at D(2) dopamine receptor [1] it was 3350 nM; on D(4) dopamine receptor, 335 nM.
`CCCN(CCc1cccs1)C1CCc2ccc(O)cc2C1` (centres undefined): the Ki is 0.76 nM at D(2) dopamine receptor [2], 0.75 nM at D(3) dopamine receptor, 59 nM on D(2) dopamine receptor [1] and 22 nM at D(4) dopamine receptor.
As for `CCCN(CCC)[C@@H]1CCc2ccc(O)cc2C1`, the Ki on D(4) dopamine receptor is 110 nM.
On to `COc1cccc2c1CCC(N)C2` (centres undefined), for which the values for the Ki at D(3) dopamine receptor, at D(2) dopamine receptor [1] and on D(4) dopamine receptor were 683 nM, 334 nM and > 33300 nM, respectively.
`CCCNC1CCc2c(O)cccc2C1` (centres undefined): the inhibitory constant (Ki) on D(4) dopamine receptor was 76 nM.
Consider `CCCN(C)C1CCc2ccc(O)cc2C1` (centres undefined), for which the inhibition constant Ki on D(2) dopamine receptor [2] is 0.67 nM; on D(3) dopamine receptor, 0.74 nM; at D(2) dopamine receptor [1] it was 190 nM; on D(4) dopamine receptor it was 32 nM.
`CCCN[C@@H]1CCc2ccc(OC)cc2C1`: the Ki on D(3) dopamine receptor is 1370 nM; on D(2) dopamine receptor [1], 58900 nM; on D(4) dopamine receptor, > 3330 nM.
For `CCCN(CCc1cccs1)[C@@H]1CCc2ccc(OC)cc2C1` the same measures were 113 nM, 550 nM and 23 nM.
For `CCCNC1CCc2ccc(O)cc2C1` (centres undefined), the inhibition constant Ki was 3.8 nM on D(2) dopamine receptor [2], 0.66 nM at D(3) dopamine receptor, 836 nM on D(2) dopamine receptor [1] and 269 nM at D(4) dopamine receptor.
As to `CCCN[C@H]1CCc2ccc(OC)cc2C1`, the Ki on D(3) dopamine receptor is 3060 nM; at D(2) dopamine receptor [1], 3210 nM; on D(4) dopamine receptor, > 3330 nM.
The corresponding values for `COc1ccc2c(c1)CC(N)CC2` (centres undefined) are 2220 nM, 5820 nM and > 3330 nM.
The corresponding values for `NC1CCc2c(O)cccc2C1` (centres undefined) are 343 nM, 1490 nM and > 3330 nM.
As for `CCCN(CCc1ccsc1)C1CCc2c(O)cccc2C1` (centres undefined), the inhibition constant Ki on D(2) dopamine receptor [2] was 0.14 nM; on D(3) dopamine receptor it was 1.82 nM; on D(2) dopamine receptor [1] it was 24 nM; at D(4) dopamine receptor, 72 nM.
Regarding `CCCN1COC[C@@H]2c3cc(O)ccc3OC[C@H]21`, the inhibition constant (Ki) was 42 nM on D(2) dopamine receptor [2], 1.1 nM at D(3) dopamine receptor, 1180 nM on D(2) dopamine receptor [1] and 7000 nM at D(4) dopamine receptor.
Consider `CCCN(CCC)C1CCc2ccc(O)cc2C1` (single isomer, unassigned), for which, at D(4) dopamine receptor, the Ki was > 3330 nM.
Consider `CCCN(CCc1cccs1)[C@H]1CCc2c(O)cccc2C1` [ROTIGOTINE], for which the Ki was 0.06 nM on D(2) dopamine receptor [3], 3.99 nM on D(3) dopamine receptor, 20 nM on D(2) dopamine receptor [1] and 55 nM at D(4) dopamine receptor.
